The conditions of data set [1]: cited from earlier work.
The next data set can be described thus: in vivo. The note with it: male, SD, rat, 10 mg/kg, oral administration of dezocine in rats, Dezocine dosed at 10 mpk.
A further data set deals with T1, hERG potassium channel (Homo sapiens, UniProt Q12809).
T1 construct: host or cells: CHO cells stably expressing hERG
Briefly: Inhibition of hERG potassium ion channel, manual whole-cell patch clamp in CHO hERG cells. The note with it: human, CHO cells stably expressing hERG. It is filed as cell-based. How it is done:
Assay 2: Inhibition of hERG Potassium Ion Channel
2.1.1 Cells used in this experiment were CHO cell lines transfected with hERG cDNA and stably expressing hERG channels (supplied by Sophion Bioscience, Denmark), with cell progeny being P15. Cells were cultured in medium containing the following ingredients Invitrogen): Ham's F12 medium, 10% (v/v) inactivated fetal bovine serum, […] hygromycin B, and […] Geneticin.
2.1.2 CHO hERG cells were grown in Petri dishes containing the above medium and cultured in an incubator of 5% CO2 at 37° C. CHO hERG cells were transferred onto round glass plates in Petri dishes and grown on the same culture medium and culture conditions as above 24 h to 48 h prior to the electrophysiological experiments. The density of CHO hERG cells on each round glass plate must meet the requirements that the vast majority of cells are independent and separate.
2.2 Experimental Solution
The following solutions (recommended by Sophion) were used for electrophysiological recording. The reagents used in this test were provided by Sigma.
2.3 Electrophysiological Recording System
In this experiment, whole-cell current recording was performed using a manual patch clamp system (HEKA EPC-10 signal amplification and digital conversion system, purchased from HEKA Electronic, Germany). The round glass slide of which surface CHO hERG cells were grown on was placed in an electrophysiological recording slot under an inverted microscope. Extracellular fluid was perfused continuously in the recording slot (approximately 1 ml per minute). Conventional whole-cell patch clamp current recording technique was used in the experiment. Unless otherwise specified, the experiments were performed at normal room temperature (25° C.). Cell patch clamp at −80 mV. Cell patch clamp voltage was depolarized to +20 mV to activate hERG potassium channel, and to −50 mV after 5 sec to eliminate inactivation and generate tail currents. The tail current peak was used as a value for hERG current. When the hERG potassium current recorded in the above steps became steady under continuous perfusion of the extracellular fluid in the recording slot, the subject drug to be tested could be added to the perfusion until the inhibition of the hERG current by the drug reached a steady state. Typically, the most recent three consecutive current recording lines were generally used as a measure to determine whether the state was stable. After reaching a steady state, it was perfused with extracellular fluid for washing until the hERG current returned to the value before the drug adding. One or more drugs, or multiple concentrations of the same drug, could be tested on a single cell but it was necessary to rinse with extracellular fluid before testing a different drug. Cisapride (purchased from Sigma) was used as a positive control in the experiments to ensure normal quality of the cells used.
2.4 Treatment and Dilution of Compounds
The compound was first dissolved in DMSO to a concentration of 10 mM and then the compound was diluted 1000-fold to a final test concentration of 10 μM using extracellular fluid.
The final concentration of DMSO in the compound test solution was 0.1%. The test concentration of cisapride as a positive control was 0.1 μM. All stock solutions and test solutions were subjected to regular 5-10 minutes of sonication and shaking to ensure complete dissolution of the compound.
The test data were analyzed by the data analysis software provided by HEKA Patchmaster (V2x73.2), Microsoft Excel and Graphpad Prism 5.0.
Background: hERG is a cardiac potassium channel; its block is linked to QT prolongation.

The next data set has as its target T2, CYP3A4 (Homo sapiens, UniProt P08684).
T2 construct: from tissue; host or cells: liver microsomes
The experiment in a line: Inhibition of CYP enzyme (CYP3A4, midazolam substrate, liver microsomes). The data set is classed as in vitro ADME. The settings on record: human, pH 7.4, midazolam (M) as probe substrate. The protocol:
Assay 3: Inhibition of CYP Enzyme
1. 0.1 M potassium phosphate buffer (K-buffer), pH 7.4 was preheated;
100 mM K-Buffer: 9.5 mL Stock A and 40.5 mL Stock B were mixed, brought to a total volume of 500 mL with Milli-Q water, and titrated to pH 7.4 of KOH or H3PO4;
Stock A (1 M monobasic potassium phosphate): 136.5 g of monobasic potassium phosphate was dissolved in 1 L of Milli-Q water; and
Stock B (1 M dibasic potassium phosphate): 174.2 g of dibasic potassium phosphate was dissolved in 1 L of Milli-Q water.
2. Serial dilutions of test compounds and reference inhibitors (400×) were prepared in a 96-well plate:
2.1 8 μL of 10 mM test compounds was transferred to 12 μL of ACN. 2.2 A separate inhibitor solution was prepared for reference: 8 μL of inhibitor DMSO stock was added with 12 μL of ACN.
2.3 A 1:3 serial dilution was prepared with a DMSO:ACN mixture (v/v: 40:60).
3. 4×NADPH cofactor (66.7 mg NADPH dissolved in 10 mL 0.1 M K-buffer, pH 7.4) was prepared.
4. 4× substrate (2 mL for each isoform) was prepared as indicated in the table below (Liver microsomes must be added on ice).
5. 0.2 mg/mL liver microsome solution (990 μL of 0.1 M K-buffer was added to each 10 μL of 20 mg/mL) was prepared on ice.
6. 200 μL of 0.2 mg/mL liver microsomes was added on ice to a 96-well plate and then 1 μL of test compound or reference compound was added into corresponding wells.
7. The following solutions were added to a 96-well plate (in duplicate) on ice:
7.1 30 μL of 2× test compounds and reference compound in 0.2 mg/mL liver microsome solution were added;
7.2 15 μL of 4× substrate solution was added.
8. The 96-well assay plate and NADPH solution were pre-heated at 37° C. for 5 minutes.
9. 15 μL of pre-heated 8 mM NADPH solution was added into the assay plates to initiate the reaction.
10. The 3A4 subtype was incubated at 37° C. for 5 min for.
11. The reaction was quenched by adding 120 μL of ACN containing an internal standard.
12. After quenching, the plates were shaked in a vibrator (IKA, MTS 2/4) for 5 min (600 rpm/min) and then centrifuged at 3, 750 rpm for 15 min (Allegra X-12R centrifuge).
13. After centrifugation, 50 μL of the supernatant from each well was taken into a 96-well plate containing 70 μL of wastons water and mixed for LC/MS analysis.
(In general: Microsomes from liver hold many membrane-bound enzymes, among them those of drug oxidation.)

The values that follow come from patent US10577346B2, “Benzobicycloalkane derivatives, their preparation and pharmaceutical use thereof” (priority 2016, dated 2020).

A value given as a limit tells only on which side of the number the result lay.

T1 sequence (Q12809 whole entry): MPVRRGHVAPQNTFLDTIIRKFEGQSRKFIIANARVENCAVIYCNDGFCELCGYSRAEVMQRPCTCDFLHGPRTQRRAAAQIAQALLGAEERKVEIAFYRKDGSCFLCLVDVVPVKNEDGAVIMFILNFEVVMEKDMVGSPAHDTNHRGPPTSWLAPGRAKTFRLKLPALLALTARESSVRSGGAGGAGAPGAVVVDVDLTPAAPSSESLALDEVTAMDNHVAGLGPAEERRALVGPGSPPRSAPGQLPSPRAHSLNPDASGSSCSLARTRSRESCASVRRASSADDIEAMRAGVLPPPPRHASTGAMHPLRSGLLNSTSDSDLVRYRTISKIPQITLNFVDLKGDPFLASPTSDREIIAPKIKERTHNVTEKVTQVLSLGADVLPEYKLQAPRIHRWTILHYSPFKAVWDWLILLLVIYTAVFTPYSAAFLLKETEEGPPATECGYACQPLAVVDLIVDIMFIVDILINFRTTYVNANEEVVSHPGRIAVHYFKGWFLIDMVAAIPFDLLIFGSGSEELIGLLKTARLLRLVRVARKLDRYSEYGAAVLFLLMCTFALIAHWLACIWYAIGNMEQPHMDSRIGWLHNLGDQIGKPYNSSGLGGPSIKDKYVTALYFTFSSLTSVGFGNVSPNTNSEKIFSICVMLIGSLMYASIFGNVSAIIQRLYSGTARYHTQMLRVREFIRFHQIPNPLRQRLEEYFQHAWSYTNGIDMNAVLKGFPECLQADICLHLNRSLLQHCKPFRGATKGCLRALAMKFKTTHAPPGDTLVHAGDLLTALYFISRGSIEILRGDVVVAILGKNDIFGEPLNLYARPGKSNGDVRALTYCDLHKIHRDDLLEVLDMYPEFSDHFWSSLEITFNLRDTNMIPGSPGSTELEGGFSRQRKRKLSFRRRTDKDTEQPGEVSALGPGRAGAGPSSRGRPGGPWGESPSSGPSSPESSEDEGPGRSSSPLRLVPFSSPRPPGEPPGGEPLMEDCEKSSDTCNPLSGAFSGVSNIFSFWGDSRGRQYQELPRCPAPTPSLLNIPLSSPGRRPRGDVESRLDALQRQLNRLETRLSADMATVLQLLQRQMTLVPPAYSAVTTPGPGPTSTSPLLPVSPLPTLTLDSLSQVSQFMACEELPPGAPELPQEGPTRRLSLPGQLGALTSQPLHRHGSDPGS
T2 sequence (P08684 whole entry): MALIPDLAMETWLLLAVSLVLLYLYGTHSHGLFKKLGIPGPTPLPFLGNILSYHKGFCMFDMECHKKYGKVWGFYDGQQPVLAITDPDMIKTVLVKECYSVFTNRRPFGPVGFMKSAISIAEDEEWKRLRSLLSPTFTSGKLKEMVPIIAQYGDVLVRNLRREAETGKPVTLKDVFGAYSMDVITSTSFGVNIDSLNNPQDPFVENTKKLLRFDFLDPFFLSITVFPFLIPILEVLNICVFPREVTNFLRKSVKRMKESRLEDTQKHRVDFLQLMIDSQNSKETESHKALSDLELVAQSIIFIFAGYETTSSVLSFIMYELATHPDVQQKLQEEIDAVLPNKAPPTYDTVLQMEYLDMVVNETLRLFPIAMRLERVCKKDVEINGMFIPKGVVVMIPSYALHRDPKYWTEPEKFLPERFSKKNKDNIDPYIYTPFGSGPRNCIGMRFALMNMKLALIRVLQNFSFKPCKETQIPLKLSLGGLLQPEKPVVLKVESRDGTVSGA
Protocol for in vivo: LC-MS/MS method was applied for the determination of the drug concentration in plasma at different times after the example compounds were administered via gavage to rats in order to study the pharmacokinetic behavior of the compounds of the disclosure in vivo in rats and evaluate their pharmacokinetic characteristics.
Test animals: healthy adult male SD rats (weight 200-300 g, 3, fasted), provided by SLAC company;
Administration and dosage: 16 mg/kg or 24 mg/kg, 10 mL/kg, 5% 1,2-propanediol (1,2-Propanediol, Shanghai Titan Technology Co., Ltd. Lot No.: P1057349)) was administered via oral gavage to SD rats;
Blood collection: firstly, the animals which were selected to meet the test requirements prior to administration were weighed and labelled. The rats were bound before the blood collection, about 150 μl of blood from each administered rat was taken at predetermined time points via orbital vein (blood was collected before administration and at 0.083, 0.25, 0.5, 1, 2, 4, 6, and 8 h after administration respectively, 9 time points in total). Blood was transferred to a 1.5 ml tube to which K2EDTA was added previously. The collected blood sample was put on wet ice, and centrifuged (2000 g, 5 min under 4° C.) to obtain plasma sample, the whole process of which was completed within 15 minutes after blood collection. All the samples were stored at approximately −70° C. until analysis. […]

The AUC is the area under the concentration-time curve, a measure of exposure. Read a high AUC as high exposure. For `C[C@@]12CCCCC[C@@H](Cc3ccc(O)cc31)[C@@H]2N` [Dezocine, dezocine], the oral bioavailability in data set [1] is on record as no more than 5%. The molecule further came in with an exposure (AUC) in “in vivo” of 58.6 ng·h/mL.

By inhibition is commonly meant the relative decrease from the control value, in per cent. Read a low inhibition as little suppression. `C[C@@]12CCCCC[C@@H](Cc3ccc(OC(=O)N4CCC(N5CCCCC5)CC4)cc31)[C@@H]2N` [Compound Z-49]: the inhibition at 10 μM against hERG potassium channel amounted to 14.4%. For the same molecule, the inhibition at 5 min, 1 μM at CYP3A4 was 7.28%.
